Source: ChEMBL document CHEMBL6096654, “Allosteric inhibition of PTP1B by bromocatechol-chalcone derivatives” (Eur J Med Chem, 2025)
pIC50: −log10 of the molar value.

Tests used:
[1] = target: T1, Tyrosine-protein phosphatase non-receptor type 11 (Homo sapiens, UniProt Q06124); experiment: Inhibition of SHP2 (unknown origin) using pNPP as substrate incubated for 30 mins by spectrophotometry
T1 sequence (Q06124 whole entry): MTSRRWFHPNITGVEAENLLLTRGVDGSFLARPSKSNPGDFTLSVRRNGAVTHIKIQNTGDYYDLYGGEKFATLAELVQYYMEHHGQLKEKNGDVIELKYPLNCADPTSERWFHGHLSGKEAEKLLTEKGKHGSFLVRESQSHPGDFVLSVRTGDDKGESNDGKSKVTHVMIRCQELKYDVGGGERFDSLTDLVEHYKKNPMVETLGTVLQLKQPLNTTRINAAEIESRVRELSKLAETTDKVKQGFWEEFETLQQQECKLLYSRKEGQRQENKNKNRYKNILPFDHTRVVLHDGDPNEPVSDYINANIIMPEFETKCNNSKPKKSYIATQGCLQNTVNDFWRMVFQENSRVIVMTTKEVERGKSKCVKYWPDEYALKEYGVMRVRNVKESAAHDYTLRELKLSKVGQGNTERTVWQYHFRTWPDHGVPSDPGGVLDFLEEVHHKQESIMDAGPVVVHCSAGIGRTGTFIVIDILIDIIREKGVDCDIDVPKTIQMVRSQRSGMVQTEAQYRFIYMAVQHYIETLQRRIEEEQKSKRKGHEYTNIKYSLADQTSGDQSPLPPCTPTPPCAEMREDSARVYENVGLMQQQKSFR

[2] = target: T2, Tyrosine-protein phosphatase non-receptor type 2 (Homo sapiens, UniProt P17706); experiment: Inhibition of TCPTP (unknown origin) using pNPP as substrate incubated for 30 mins by spectrophotometry
T2 sequence (P17706 whole entry): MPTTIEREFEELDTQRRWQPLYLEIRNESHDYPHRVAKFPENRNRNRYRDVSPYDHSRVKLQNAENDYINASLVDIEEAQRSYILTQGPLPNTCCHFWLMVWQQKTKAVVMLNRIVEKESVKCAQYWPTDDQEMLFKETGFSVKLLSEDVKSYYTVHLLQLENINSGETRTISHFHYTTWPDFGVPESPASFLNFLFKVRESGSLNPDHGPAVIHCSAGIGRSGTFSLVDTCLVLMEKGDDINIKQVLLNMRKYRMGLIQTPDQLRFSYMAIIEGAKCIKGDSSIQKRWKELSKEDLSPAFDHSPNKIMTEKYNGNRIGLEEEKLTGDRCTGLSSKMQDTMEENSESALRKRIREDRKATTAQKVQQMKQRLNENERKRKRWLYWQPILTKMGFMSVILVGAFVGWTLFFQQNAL

[3] = target: T3, Tyrosine-protein phosphatase non-receptor type 1 (Homo sapiens, UniProt P18031); experiment: Allosteric inhibition of PTP1B (unknown origin) using pNPP as substrate incubated for 30 mins by spectrophotometry
T3 sequence (P18031 whole entry): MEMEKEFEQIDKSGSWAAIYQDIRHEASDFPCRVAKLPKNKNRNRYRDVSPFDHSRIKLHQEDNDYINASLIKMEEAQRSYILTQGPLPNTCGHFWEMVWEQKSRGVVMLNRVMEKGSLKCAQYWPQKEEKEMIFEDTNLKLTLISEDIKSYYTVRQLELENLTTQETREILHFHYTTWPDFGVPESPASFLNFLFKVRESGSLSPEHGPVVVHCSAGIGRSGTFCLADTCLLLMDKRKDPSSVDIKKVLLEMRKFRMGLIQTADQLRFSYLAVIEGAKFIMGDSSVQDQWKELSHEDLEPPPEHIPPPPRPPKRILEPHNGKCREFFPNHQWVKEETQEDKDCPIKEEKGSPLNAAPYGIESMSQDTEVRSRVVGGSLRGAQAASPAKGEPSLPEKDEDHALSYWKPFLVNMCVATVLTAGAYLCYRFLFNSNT

[4] = Inhibition of PTP1B N193A/K197A mutant (unknown origin) using pNPP as substrate incubated for 30 mins by spectrophotometry; parameters: species or system Homo sapiens

| SMILES | pIC50 [1] | pIC50 [2] | pIC50 [3] | pIC50 [4] |
| --- | --- | --- | --- | --- |
| O=C(/C=C/c1cc(O)c(O)c(Br)c1Br)c1ccccc1Cl | < 4.70 | 5.24 | 5.66 | 4.98 |
| Cc1ccccc1C(=O)/C=C/c1cc(O)c(O)c(Br)c1Br | < 4.70 | 5.03 | 5.77 | 5.10 |
| Cc1ccc(C(=O)/C=C/c2cc(O)c(O)c(Br)c2Br)cc1 | < 4.70 | 4.99 | 5.70 | 4.99 |
| O=C(/C=C/c1cc(O)c(O)c(Br)c1Br)c1ccc(Cl)c(Cl)c1 | < 4.70 | 4.80 | 5.52 | 4.94 |
| CCOc1ccc(C(=O)/C=C/c2cc(O)c(O)c(Br)c2Br)cc1 | < 4.70 | 4.76 | 5.49 | 5.04 |
| COc1ccc(C(=O)/C=C/c2cc(O)c(O)c(Br)c2Br)cc1Br | < 4.70 | 5.43 | 5.84 | 5.04 |
| O=C(/C=C/c1cc(O)c(O)c(Br)c1Br)c1ccc(Cl)cc1 | < 4.70 | 5.01 | 5.67 | 4.90 |

The remaining lines, values ahead:

| pIC50 [1] | pIC50 [2] | pIC50 [3] | pIC50 [4] | SMILES |
| --- | --- | --- | --- | --- |
| < 4.70 | 4.87 | 5.61 | 5.04 | COc1ccc(C(=O)/C=C/c2cc(O)c(O)c(Br)c2)cc1Br |
| < 4.70 | 4.83 | 5.59 | 4.90 | O=C(/C=C/c1cc(O)c(O)c(Br)c1)c1cc(Br)c(O)c(Br)c1 |
| < 4.70 | 5.05 | 5.59 | 4.90 | O=C(/C=C/c1cc(O)c(O)c(Br)c1Br)c1cccc(Cl)c1 |
| < 4.70 | 4.87 | 5.44 | 4.80 | O=C(/C=C/c1cc(O)c(O)c(Br)c1Br)c1cccc(C(F)(F)F)c1 |
